# ChEMBL document CHEMBL1137125, “Rhodanine-3-acetic acid derivatives as inhibitors of fungal protein mannosyl transferase 1 (PMT1)” (Bioorg Med Chem Lett, 2004)
# Legend:
# Candida albicans = test: In vitro inhibition of Candida albicans G418-sensitive proliferation; assay type: functional, organism-based
# [1] = target: T1, Dolichyl-phosphate-mannose--protein mannosyltransferase 1 (Candida albicans (strain SC5314 / ATCC MYA-2876) (Yeast), UniProt O74189); test: In vitro inhibition of Candida albicans protein mannosyl transferase 1
# T1 sequence (O74189 whole entry): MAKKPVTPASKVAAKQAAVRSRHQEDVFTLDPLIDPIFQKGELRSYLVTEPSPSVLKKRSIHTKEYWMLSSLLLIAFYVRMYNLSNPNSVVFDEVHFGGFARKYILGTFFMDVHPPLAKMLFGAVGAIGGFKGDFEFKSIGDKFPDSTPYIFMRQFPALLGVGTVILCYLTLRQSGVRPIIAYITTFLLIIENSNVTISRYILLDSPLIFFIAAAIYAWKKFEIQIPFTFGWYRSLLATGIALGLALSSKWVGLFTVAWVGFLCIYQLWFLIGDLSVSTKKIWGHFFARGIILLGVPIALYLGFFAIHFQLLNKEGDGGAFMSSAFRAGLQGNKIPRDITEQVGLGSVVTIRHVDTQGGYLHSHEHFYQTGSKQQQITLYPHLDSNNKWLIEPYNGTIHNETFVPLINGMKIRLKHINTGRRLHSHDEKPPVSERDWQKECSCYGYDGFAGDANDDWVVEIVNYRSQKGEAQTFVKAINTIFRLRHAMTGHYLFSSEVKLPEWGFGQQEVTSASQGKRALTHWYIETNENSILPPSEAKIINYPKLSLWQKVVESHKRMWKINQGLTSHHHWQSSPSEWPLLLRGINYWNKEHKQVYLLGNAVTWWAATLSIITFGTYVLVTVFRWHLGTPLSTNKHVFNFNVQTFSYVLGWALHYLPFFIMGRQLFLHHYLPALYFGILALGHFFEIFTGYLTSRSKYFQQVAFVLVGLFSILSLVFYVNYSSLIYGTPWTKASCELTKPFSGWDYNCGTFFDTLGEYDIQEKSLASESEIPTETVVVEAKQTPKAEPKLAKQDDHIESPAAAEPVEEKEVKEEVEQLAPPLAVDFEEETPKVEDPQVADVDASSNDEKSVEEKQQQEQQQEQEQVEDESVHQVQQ
Structure (SMILES),IC50 [1] [nM],IC50 (Candida albicans) [nM]
CC(C)C(Oc1cc(/C=C2\SC(=S)N(CC(=O)O)C2=O)ccc1OCCc1ccccc1)c1ccccc1 (centres undefined),700,30
O=C(O)CN1C(=O)/C(=C/c2ccc(OCc3ccc(F)cc3F)c(OCc3ccc(F)cc3F)c2)SC1=S,5000,> 100000
CCCN(CCC)C(=O)C(Oc1cc(/C=C2\SC(=S)N(CC(=O)O)C2=O)ccc1OCCc1ccccc1)c1ccccc1 (centres undefined),800,50
C[C@@H](COc1ccc(/C=C2\SC(=S)N(CC(=O)O)C2=O)cc1O[C@H](C)c1ccccc1)c1ccccc1,1800,30
CC(Oc1cc(/C=C2\SC(=S)N(CC(=O)O)C2=O)ccc1OCCc1ccccc1)c1ccccc1 (centres undefined),200,20
C[C@@H](COc1ccc(/C=C2\SC(=S)N(CC(=O)O)C2=O)cc1O[C@H](c1ccccc1)C(F)(F)F)c1ccccc1,400,10
C[C@H](Oc1cc(/C=C2\SC(=S)N(CC(=O)O)C2=O)ccc1OC[C@H](C)c1ccccc1)c1ccccc1,500,2
O=C(O)CN1C(=O)/C(=C/c2ccc(OCc3ccccc3)cc2)SC1=S,55000,50000
C[C@H](COc1ccc(/C=C2\SC(=S)N(CC(=O)O)C2=O)cc1O[C@H](c1ccccc1)C(F)(F)F)c1ccccc1,600,20
O=C(O)CN1C(=O)/C(=C/c2ccc(OCc3cccc(C(F)(F)F)c3)c(OCc3ccccc3)c2)SC1=S,–,650
C[C@H](COc1ccc(/C=C2\SC(=S)N(CC(=O)O)C2=O)cc1O[C@@H](c1ccccc1)C(F)(F)F)c1ccccc1,3500,550
O=C(O)CN1C(=O)/C(=C/c2ccc(OCCc3ccccc3)c(OC(C(=O)N3CCOCC3)c3ccccc3)c2)SC1=S (centres undefined),1000,43000
CC[C@H](COc1ccc(/C=C2\SC(=S)N(CC(=O)O)C2=O)cc1O[C@H](c1ccccc1)C(F)(F)F)c1ccccc1,500,20
CC[C@@H](COc1ccc(/C=C2\SC(=S)N(CC(=O)O)C2=O)cc1O[C@H](c1ccccc1)C(F)(F)F)c1ccccc1,350,20
CCC(Oc1cc(/C=C2\SC(=S)N(CC(=O)O)C2=O)ccc1OCCc1ccccc1)c1ccccc1 (centres undefined),950,20
NC(=O)C(Oc1cc(/C=C2\SC(=S)N(CC(=O)O)C2=O)ccc1OCCc1ccccc1)c1ccccc1 (centres undefined),350,7000
O=C(O)CN1C(=O)/C(=C/c2ccc(OCCc3ccccc3)c(OC(CO)c3ccccc3)c2)SC1=S (centres undefined),170,300
O=C(O)CN1C(=O)/C(=C/c2cccc(OCc3ccccc3)c2)SC1=S,50000,–
C[C@@H](COc1ccc(/C=C2\SC(=S)N(CC(=O)O)C2=O)cc1O[C@@H](c1ccccc1)C(F)(F)F)c1ccccc1,1800,200
O=C(O)CN1C(=O)/C(=C/c2ccc(OCc3c(F)cccc3F)c(OCc3c(F)cccc3F)c2)SC1=S,20000,> 100000

# Second part, led by results:
IC50 [1] [nM],Structure (SMILES),IC50 (Candida albicans) [nM]
6500,O=C(O)CN1C(=O)/C(=C/c2ccc(OCc3ccc(F)cc3F)c(OCc3ccccc3)c2)SC1=S,2100
1200,O=C(O)CN1C(=O)/C(=C/c2ccc(OCCc3ccc(F)cc3)c(OCc3ccccc3)c2)SC1=S,50
2300,O=C(O)CN1C(=O)/C(=C/c2ccc(OCc3ccccc3)c(OCc3ccccc3)c2)SC1=S,3000
9500,C[C@H](COc1ccc(/C=C2\SC(=S)N(CC(=O)O)C2=O)cc1OCc1ccccc1)c1ccccc1,350
15000,COc1cccc(COc2ccc(/C=C3\SC(=S)N(CC(=O)O)C3=O)cc2OCc2cccc(OC)c2)c1,> 100000
1800,C[C@@H](COc1ccc(/C=C2\SC(=S)N(CC(=O)O)C2=O)cc1OCc1ccccc1)c1ccccc1,70
1400,O=C(O)CN1C(=O)/C(=C/c2ccc(OCCCc3ccccc3)c(OCc3ccccc3)c2)SC1=S,2400
2000,O=C(O)CN1C(=O)/C(=C\c2ccc(OCc3ccccc3)c(OCc3ccc(OC(F)(F)F)cc3)c2)SC1=S,500
43000,O=C(O)CN1C(=O)/C(=C/c2ccc(OCc3ccccc3)c(OCc3cccnc3)c2)SC1=S,> 100000
2700,Cc1ccc(COc2ccc(/C=C3\SC(=S)N(CC(=O)O)C3=O)cc2OCc2ccccc2)cc1,600
20000,CS(=O)(=O)c1ccc(COc2cc(/C=C3\SC(=S)N(CC(=O)O)C3=O)ccc2OCc2ccccc2)cc1,> 100000
950,O=C(O)CN1C(=O)/C(=C/c2ccc(OCc3ccc(Cl)cc3)c(OCc3ccccc3)c2)SC1=S,600
1600,O=C(O)CN1C(=O)/C(=C/c2ccc(OCCc3ccc(Cl)cc3)c(OCc3ccccc3)c2)SC1=S,50
3400,COc1ccc(COc2ccc(/C=C3\SC(=S)N(CC(=O)O)C3=O)cc2OCc2ccccc2)cc1,3000
11000,O=C(O)CN1C(=O)/C(=C/c2ccc(OCc3ccccc3)c(OCc3ccc(C(F)(F)F)cc3)c2)SC1=S,> 100000
2000,O=C(O)CN1C(=O)/C(=C/c2ccc(OCc3ccc(F)c(F)c3)c(OCc3ccccc3)c2)SC1=S,1500

IC50 [1] [nM],Structure (SMILES),IC50 (Candida albicans) [nM]
5000,O=C(O)CN1C(=O)/C(=C/c2ccc(OCc3ccc(F)cc3)c(OCc3ccc(F)cc3)c2)SC1=S,5200
4000,O=C(O)CN1C(=O)/C(=C/c2ccc(OCc3ccccc3)c(OCc3cccc(Cl)c3)c2)SC1=S,4000
7000,O=C(O)CN1C(=O)/C(=C/c2ccc(OCc3ccccc3)c(OCc3ccc(Cl)cc3)c2)SC1=S,–
30000,O=C(O)CN1C(=O)/C(=C/c2ccc(OCc3ccccc3)c(OCc3ccncc3)c2)SC1=S,> 100000
8500,O=C(O)CN1C(=O)/C(=C/c2ccc(OCc3ccccc3)c(OCc3ccc(F)cc3F)c2)SC1=S,6000
7500,COc1cccc(COc2cc(/C=C3\SC(=S)N(CC(=O)O)C3=O)ccc2OCc2ccccc2)c1,> 100000
1300,O=C(O)CN1C(=O)/C(=C/c2ccc(OCCc3ccc(OC(F)(F)F)cc3)c(OCc3ccccc3)c2)SC1=S,200
3200,CS(=O)(=O)c1ccc(COc2ccc(/C=C3\SC(=S)N(CC(=O)O)C3=O)cc2OCc2ccccc2)cc1,> 100000
4000,O=C(O)CN1C(=O)/C(=C/c2ccc(OCCc3ccc(C(F)(F)F)cc3)c(OCc3ccccc3)c2)SC1=S,180
11000,O=C(O)CN1C(=O)/C(=C/c2ccc(OCc3ccccc3)c(OCc3cccc(C(F)(F)F)c3)c2)SC1=S,> 100000
850,O=C(O)CN1C(=O)/C(=C/c2ccc(OCCc3cc(F)cc(F)c3)c(OCc3ccccc3)c2)SC1=S,110
1500,O=C(O)CN1C(=O)/C(=C/c2ccc(OCCc3ccccc3)c(OCc3ccccc3)c2)SC1=S,500
1900,O=C(O)CN1C(=O)/C(=C/c2ccc(OCc3ccc(C(F)(F)F)cc3)c(OCc3ccccc3)c2)SC1=S,4000
4200,O=C(O)CN1C(=O)/C(=C/c2ccc(OCc3ccccc3)c(OCc3ccc(F)c(F)c3)c2)SC1=S,> 100000
4000,O=C(O)CN1C(=O)/C(=C/c2ccc(OCCc3ccc(F)cc3F)c(OCc3ccccc3)c2)SC1=S,50
